Laboratory results: patent publication US20040248777A1, “Biomaterials for nerve reconstruction and process for producing the same” (priority 2001, published 2004)

Conditions: laminin fragments in a collagen-filled silicon tube
Text: The present invention is directed to a biomaterial for nerve reconstruction, comprising chitin or chitosan with a surface modified by a laminin fragment having an amino acid sequence, such as YIGSR (tyrosine-isoleucine-glycine-serine-arginine) or IKVAV (isoleucine-lysine-valine-alanine-valine). This material may be used in the form of a nerve-bridging chitosan tube with a wall surface directly modified by the above laminin fragment, a nerve-bridging tube containing therein chitosan fibers with a surface modified by the above laminin fragment, or a nerve-bridging tube filled with chitosan gel modified by the above laminin fragment.

Row | Substance | cell adhesion and neurite growth-promoting effects in vivo
1 | isoleucine-lysine-valine-alanine-valine [IKVAV] | cannot achieve such effects
2 | tyrosine-isoleucine-glycine-serine-arginine [YIGSR] | cannot achieve such effects
